# Test system: Escherichia coli strain ATCC25922
# Assay: standard microdilution assay to determine minimum inhibitory concentrations (MICs)
# Assay type: cell-based
# Conditions: Escherichia coli strain ATCC25922, microdilution
# Summary of the method: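 Broth microdilution MIC against E. coli ATCC25922, following CLSI protocols, typically in a 100 microliter final volume. Results reported as +/− relative to a 16 micrograms/ml cutoff.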
row,SMILES,E. coli ATCC25922 MIC
1,N=C(N)NCCCNCc1ccc(-n2cc3cc(-c4ccc(S(=O)(=O)N(CC5COc6ccccc6O5)C5CCNCC5)cc4)[nH]c3nc2=O)cc1 (centres unmarked) [Compound 768],+ (a “+” indicates that the compound has an MIC value of 16 micrograms/ml or less)
2,N=C(N)NCCCNCc1ccc(-n2cc3cc(-c4ccc(F)c(CCCCN)c4)[nH]c3nc2=O)cc1 [Compound 2071a],+ (a “+” indicates that the compound has an MIC value of 16 micrograms/ml or less)
3,COc1ccc(NCCCS(=O)(=O)c2ccc(-c3cc4cn(-c5ccc(C(=O)NCCCNC(=N)N)cc5)c(=O)nc4[nH]3)cc2)cc1 [Compound 1260],− (a “−” indicates that the compound has an MIC value greater than 16 micrograms/ml)
4,N=C(N)NCCCNCc1ccc(-n2cc3cc(-c4cc(CNc5cc(F)cc(F)c5)cc(N5CCNCC5)c4)[nH]c3nc2=O)cc1 [Compound 1043],+ (a “+” indicates that the compound has an MIC value of 16 micrograms/ml or less)
5,N=C(N)NCCCNCc1ccc(-n2cc3cc(-c4cccc(S(=O)(=O)N(CCC(N)=O)C5CCNCC5)c4)[nH]c3nc2=O)cc1 [Compound 1259],+ (a “+” indicates that the compound has an MIC value of 16 micrograms/ml or less)
6,"N=C(N)NCCCNCc1ccc(-n2cc3cc(-c4ccc(S(=O)(=O)N(CC5CCOCC5)C5CCCNC5)cc4)[nH]c3nc2=O)cc1 (single isomer, unassigned) [Compound 845]",+ (a “+” indicates that the compound has an MIC value of 16 micrograms/ml or less)
7,NC(=O)c1ccc(-n2cc3cc(-c4ccc(S(=O)(=O)N(CCCn5ccc(C(F)(F)F)n5)C5CCNCC5)cc4)[nH]c3nc2=O)cc1 [Compound 1116],− (a “−” indicates that the compound has an MIC value greater than 16 micrograms/ml)
8,N=C(N)NCCCNCc1ccc(-n2cc3cc(-c4ccc(S(=O)(=O)N(CC5CCOCC5)C5CCNCC5)cc4)[nH]c3nc2=O)cc1 [Compound 758],+ (a “+” indicates that the compound has an MIC value of 16 micrograms/ml or less)
9,N=C(N)NCCCNCc1ccc(-n2cc3cc(-c4cc(CN)cc(CCCCN)c4)[nH]c3nc2=O)cc1 [Compound 2064a],+ (a “+” indicates that the compound has an MIC value of 16 micrograms/ml or less)
10,N=C(N)NCCCNCc1ccc(-n2cc3cc(-c4cc(CCCCN)ccc4F)[nH]c3nc2=O)cc1 [Compound 2091a],+ (a “+” indicates that the compound has an MIC value of 16 micrograms/ml or less)
11,COc1cc(-n2cc3cc(-c4cccc(OCC(F)CN)c4)[nH]c3nc2=O)ccc1CNCCCNC(=N)N (centres unmarked) [Compound 1391],+ (a “+” indicates that the compound has an MIC value of 16 micrograms/ml or less)
12,NC(N)=NCCCNCc1ccc(-n2cc3cc(-c4cccc(S(=O)(=O)N(CCc5ccc(O)cc5)C5CCNCC5)c4)[nH]c3nc2=O)cc1 [Compound 1214],+ (a “+” indicates that the compound has an MIC value of 16 micrograms/ml or less)
13,N=C(N)NCCCNCc1ccc(-n2cc3cc(-c4cc(CCO)cc(OCC(F)CN)c4)[nH]c3nc2=O)cc1 (centres unmarked) [Compound 2004a],− (a “−” indicates that the compound has an MIC value greater than 16 micrograms/ml)
14,CNCc1ccc(-n2cc3cc(-c4ccc(S(=O)(=O)N(CC5COc6ccccc6O5)C5CCNCC5)cc4)[nH]c3nc2=O)cc1 (centres unmarked) [Compound 968],− (a “−” indicates that the compound has an MIC value greater than 16 micrograms/ml)
15,N=C(N)NCCCNCc1ccc(-n2cc3cc(-c4cc(C=CCCN)cc(OC(F)(F)F)c4)[nH]c3nc2=O)cc1 [Compound 2045a],+ (a “+” indicates that the compound has an MIC value of 16 micrograms/ml or less)
16,N=C(N)NCCCNCc1ccc(-n2cc3cc(C4CCCN(C(=O)CCCN)C4)[nH]c3nc2=O)cc1 (centres unmarked) [Compound 1406],+ (a “+” indicates that the compound has an MIC value of 16 micrograms/ml or less)
17,N=C(N)NCCCNCc1ccc(-n2cc3cc(-c4cc(CCO)cc(CCCCN)c4)[nH]c3nc2=O)cc1 [Compound 2053a],+ (a “+” indicates that the compound has an MIC value of 16 micrograms/ml or less)
18,N=C(N)NCCCNC(=O)c1ccc(-n2cc3cc(-c4ccc(S(=O)(=O)CCCNC5CCCOC5)cc4)[nH]c3nc2=O)cc1 (centres unmarked) [Compound 1284],− (a “−” indicates that the compound has an MIC value greater than 16 micrograms/ml)
19,N=C(N)NCCCNCc1ccc(-n2cc3cc(-c4ccc(S(=O)(=O)N(CCCn5cc(Cl)cn5)C5CCNCC5)cc4)[nH]c3nc2=O)cc1 [Compound 1003],+ (a “+” indicates that the compound has an MIC value of 16 micrograms/ml or less)
20,NC(N)=NCCCNCc1ccc(-n2cc3cc(-c4cccc(S(=O)(=O)N(CCN5CCCC5)C5CCNCC5)c4)[nH]c3nc2=O)cc1 [Compound 1186],+ (a “+” indicates that the compound has an MIC value of 16 micrograms/ml or less)

# Same assay, conditions: Escherichia coli, ATCC25922, Escherichia coli strain ATCC25922, microdilution; read-out: E. coli ATCC25922 MIC
row,MIC [µg/mL],SMILES
1,< 16,N=C(N)NCCCNCc1ccc(-n2cc3cc(-c4cccc(CCN5CCNCC5)c4)[nH]c3nc2=O)cc1 [Compound 1199]
2,> 16,NCc1ccc(-n2cc3cc(-c4ccc(S(=O)(=O)N(CCCN5CCCCC5)C5CCNCC5)cc4)[nH]c3nc2=O)cc1 [Compound 948]
3,< 16,N=C(N)NCCCNCc1ccc(-n2cc3cc([C@H]4C[C@@H](N)[C@@H](CO)O4)[nH]c3nc2=O)cc1 [Compound 1266]
4,> 16,NCc1ccc(-n2cc3cc(-c4cccc(S(=O)(=O)N(CCN5CCCC5)C5CCNCC5)c4)[nH]c3nc2=O)cc1 [Compound 1183]
5,> 16,N=C(N)NCCCNCc1ccc(-c2cn3cc(-c4ccc(C(=O)N5CCOCC5)cc4)[nH]c3nc2=O)cc1 [Compound 654]
6,< 16,NCCCN(CCCN)Cc1ccc(-n2cc3cc(-c4ccc(S(=O)(=O)N(Cc5ccc(Cl)c(Cl)c5)C5CCNCC5)cc4)[nH]c3nc2=O)cc1 [Compound 235]
7,< 16,N=C(N)NCCCNCc1ccc(-n2cc3cc(C4CCCN(CCNC(N)=O)C4)[nH]c3nc2=O)cc1 (centres unmarked) [Compound 2019a]
8,< 16,N=C(N)NCCCNCc1ccc(-n2cc3cc(-c4cc(C(=O)Nc5ccc(F)cc5)cc(N5CCNCC5)c4)[nH]c3nc2=O)cc1 [Compound 761]
9,> 16,N=C(N)NCCCCCn1cc2cc(-c3ccc(S(=O)(=O)NC4CCNCC4)cc3)[nH]c2nc1=O [Compound 887]
10,< 16,N=C(N)NCCCNCc1ccc(-n2cc3cc(-c4cc(CCCCN)cc(OC(F)(F)F)c4)[nH]c3nc2=O)cc1 [Compound 2009a]
11,> 16,NCCCNCc1ccc(-c2cn3nc(N)[nH]c3nc2=O)cc1 [Compound 647]
12,> 16,NCc1ccc(-n2cc3cc(-c4cccc(S(=O)(=O)N(CCn5nccc5N)C5CCNCC5)c4)[nH]c3nc2=O)cc1 [Compound 1248]
13,> 16,CCOCc1cc2cn(-c3ccc(CNCCCN)cc3)c(=O)nc2[nH]1 [Compound 764]
14,< 16,NC1CCN(Cc2ccc(-n3cc4cc(-c5ccc(S(=O)(=O)NC6CCNCC6)cc5F)[nH]c4nc3=O)cc2)CC1 [Compound 263]
15,> 16,N=C(N)NCCCNCc1ccc(-c2cn3cc(-c4ccc(S(=O)(=O)N5CCOCC5)cc4)[nH]c3nc2=O)cc1 [Compound 762]
16,> 16,NCCCNCc1ccc(-n2cc3cc[nH]c3nc2=O)cc1 [Compound 498]
17,> 16,NCCCN(CCCN)Cc1ccc(-n2cc3cc(CCc4ccccc4)[nH]c3nc2=O)cc1 [Compound 183]

row,SMILES,MIC [µg/mL]
1,CCCCN1CC=C(c2cn3cc(-c4ccc(F)cc4)[nH]c3nc2=O)CC1 [Compound 565],> 16
